Laboratory results published in patent US10183936B2, “Hepatitis B core protein allosteric modulators” (priority 2014, dated 2019).

Legend:
[1] = test system: HBV viral production in AD38 cells; test: Viral load production in AD38 cells by quantitative PCR of the HBV core sequence in supernatant; assay type: cell-based; conditions: Hepatitis B virus, 144 h; 10 μM compound, 6 days at 37° C., viral load in supernatant compared against DMSO control wells; read-out: AD38 Viral Load (CpAM/DMSO %) at 10 μM
Procedure: (§1) Example 56: Assay Measuring Activity of Compounds on Viral Production in and on Viability of AD38 Cells
(§2) AD38 cells were then re-suspended with 10 mL of Treatment Medium and counted. Wells of a collagen coated 96-well NUNC microtiter plate were seeded at 50,000/well in 180 μL of Treatment Medium, and 20 μL of in treatment media with either 10% DMSO (Control) or a 10× solution of compound in 10% DMSO was added. Plates were incubated for 6 days at 37° C.
Viral load production was assayed by quantitative PCR of the core sequence. Briefly, 5 μL of clarified supematant was added to a PCR reaction mixture that contained forward primers HBV-f 5′-CTGTGCCTTGGGTGGCTTT-3′, Reverse primers HBV-r 5′-[…]-3′ and Fluorescent TaqMan™ Probes HBV-probe 5′-FAM/AGCTCCAAA/ZEN/[…]/3IABkFQ-3′ in Quanta Biosciences PerfeCTa® qPCR Toughmix®, and was subsequently on an Applied Biosystems VIIA7 in a final volume of 20 μL. The PCR mixture was incubated at 45° C. for 5 minutes, then 95° C. for 10 min, followed by 40 cycles of 10 seconds at 95° C. and 20 seconds at 60° C. Viral load was quantitated against known standards by using ViiA™ 7 Software. Viral load in the supematant from wells with treated cells were compared against viral load in supernatant from DMSO control wells (≥3 per plate).

[2] = test system: AD38 cells; test: Viability of AD38 cells (Promega CellTiter-Glo) at the end of compound treatment; assay type: cell-based; conditions: 10 μM compound, 6 days, luminescence normalized against DMSO control wells (controls being 100%)
Procedure: as §1, §2
At the end of compound treatment period cell viability was assessed using a Promega CellTiter-Glo protocol. All supernatant was removed the previously treated 96-well microtiter plate, and 50 μL Tetracycline-free treatment medium (DMEM/F12 (1:1), lx Pen/step (cat#: 30-002-CL, Mediatech, Inc), with 2% FBS, Tet-system approved (cat#: 631106, Clontech), and 1% DMSO was added back to each well. Another 50 μL of CellTiter-Glo reagent solution (Promega, G7573) was then added at room temperature and the contents mixed for 2 minutes on an orbital shaker to induce cell lysis. This was followed by incubation at room temperature for 10 minutes to stabilize the luminescent signal. The luminescence was recorded for 0.2 seconds per well on a Tecan multimode platereader (Infinite M1000 pro). The luminescent signal from each well was normalized against that of untreated (DMSO) control wells. All results were reported percent viability (with controls being 100%).

SMILES | activity at 10 µM [1] [%] | AD38 Viability Normalized Result (CPAM/DMSO %) at 10 μM [2] [%]
C[C@H](O)CNC(=O)c1ccc2c(c1)NC(=O)c1ccccc1S2 [Compound 1222] | 32 | 100
O=C(Nc1ccccc1)c1ccc2c(c1)NC(=O)c1ccccc1S2 [Compound 1223] | 2 | 28
O=C(NCCc1ccccc1)Nc1ccc2c(c1)NC(=O)c1ccccc1S2 [Compound 1224, 1-(11-oxo-10, 11-dihydrodibenzo [b,f] [1,4]thiazepin-8-yl)-3-phenethylurea] | 3 | 65
O=C(NCCC1CCCCC1)Nc1ccc2c(c1)NC(=O)c1ccccc1S2 [Compound 1225, 1-(2-cyclohexylethyl)-3-(11-oxo-10, 11-dihydrodibenzo [b,f] [1,4]thiazepin-8-yl) urea] | 10 | 87
O=C(NC[C@@H](O)c1ccccc1)c1ccc2c(c1)NC(=O)c1ccccc1S2 [Compound 1226] | 1 | 80
CN(C)c1ccccc1CNC(=O)c1ccc2c(c1)NC(=O)c1ccccc1S2 [Compound 1227] | 10 | 92
O=C(Nc1ccccc1O)c1ccc2c(c1)NC(=O)c1ccccc1S2 [Compound 1229] | 45 | 76
O=C(Nc1ccccn1)c1ccc2c(c1)NC(=O)c1ccccc1S2 [Compound 1230] | 46 | 102
O=C(Nc1cccnc1)c1ccc2c(c1)NC(=O)c1ccccc1S2 [Compound 1231] | 12 | 93
O=C(NCc1ccccc1OC(F)(F)F)c1ccc2c(c1)NC(=O)c1ccccc1S2 [Compound 1232] | 42 | 94
O=C(NCc1cncnc1)c1ccc2c(c1)NC(=O)c1ccccc1S2 [Compound 1233] | 1 | 93
O=C(NCCC1CCCCC1)c1ccc2c(c1)NC(=O)c1ccc(F)cc1S2 [Compound 1234] | 3 | 79
O=C(NCCC1CCCCC1)c1ccc2c(c1)NC(=O)c1cc(Cl)ccc1S2 [Compound 1235] | 6 | 61
O=C(NCCC1CCCCC1)c1ccc2c(c1)NC(=O)c1ccncc1S2 [Compound 1237] | 4 | 66
COC(C)(C)CCNC(=O)c1ccc2c(c1)NC(=O)c1ccccc1S2 [Compound 1238] | 26 | 104
CNc1ccccc1CNC(=O)c1ccc2c(c1)NC(=O)c1ccccc1S2 [Compound 1239, N-(2-(methylamino)benzyl)-11-oxo-10, 11-dihydrodibenzo [b,f] [1,4] thiazepine-8-carboxamide] | 33 | 106
O=C(NCc1ccccc1N1CCCC1)c1ccc2c(c1)NC(=O)c1ccccc1S2 [Compound 1240] | 26 | 92
O=C(NCCCOc1ccccc1)c1ccc2c(c1)NC(=O)c1ccccc1S2 [Compound 1241] | 12 | 86
CC(=O)Nc1ccccc1NC(=O)c1ccc2c(c1)NC(=O)c1ccccc1S2 [Compound 1242] | 91 | 78
CC(=O)Nc1cccc(NC(=O)c2ccc3c(c2)NC(=O)c2ccccc2S3)c1 [Compound 1243] | 20 | 118

SMILES | activity at 10 µM [1] [%] | AD38 Viability Normalized Result (CPAM/DMSO %) at 10 μM [2] [%]
O=C(NCCC1CCNCC1)c1ccc2c(c1)NC(=O)c1ccccc1S2 [Compound 1244, 11-oxo-N-(2-(piperidin-4-yl)ethyl)-10, 11-dihydrodibenzo [b,f] [1,4] thiazepine-8-carboxamide] | 14 | 103
O=C(NCc1cncs1)c1ccc2c(c1)NC(=O)c1ccccc1S2 [Compound 1245] | 1 | 101
O=C(NCCc1cnco1)c1ccc2c(c1)NC(=O)c1ccccc1S2 [Compound 1246] | 6 | 96
O=C(NCCc1cncs1)c1ccc2c(c1)NC(=O)c1ccccc1S2 [Compound 1247] | 8 | 103
O=C(NCCc1ccc(-n2ccnc2)cc1)c1ccc2c(c1)NC(=O)c1ccccc1S2 [Compound 1248] | 3 | 106
O=C(NCCc1ccc(-n2cncn2)cc1)c1ccc2c(c1)NC(=O)c1ccccc1S2 [Compound 1249] | 34 | 108
O=C(NCCC1CCCCC1)c1ccc2c(c1)NC(=O)c1ccc(Cl)cc1S2 [Compound 1250] | 14 | 113
O=C(NCC(c1ccccc1)N1CCCC1)c1ccc2c(c1)NC(=O)c1ccccc1S2 (stereo not drawn) [Compound 1251] | 8 | 99
O=C(NCCC(c1ccccc1)N1CCCC1)c1ccc2c(c1)NC(=O)c1ccccc1S2 (stereo not drawn) [Compound 1252] | 14 | 94
CC(=O)Nc1ccccc1CNC(=O)c1ccc2c(c1)NC(=O)c1ccccc1S2 [Compound 1253] | 15 | 103
O=C(NCCc1ccc(-n2nccn2)cc1)c1ccc2c(c1)NC(=O)c1ccccc1S2 [Compound 1256] | 1 | 102
O=C(NCCC1CCCCC1)c1ccc2c(c1)NC(=O)c1cnccc1S2 [Compound 1257] | 26 | 113
O=C(NC[C@H](CO)c1ccccc1)c1ccc2c(c1)NC(=O)c1ccccc1S2 [Compound 1258] | 12 | 105
O=C(NC[C@@H](CO)c1ccccc1)c1ccc2c(c1)NC(=O)c1ccccc1S2 [Compound 1259] | 11 | 84
CCc1cccc(CCNC(=O)c2ccc3c(c2)NC(=O)c2ccccc2S3)c1 [Compound 1260] | 8 | 100
O=C(NCc1cnco1)c1ccc2c(c1)NC(=O)c1ccccc1S2 [Compound 1264] | 8 | 104
O=C(NCCc1ccc(-n2ccnn2)cc1)c1ccc2c(c1)NC(=O)c1ccccc1S2 [Compound 1266] | 1 | 74
O=C(NCCc1ccc(-n2cnnc2)cc1)c1ccc2c(c1)NC(=O)c1ccccc1S2 [Compound 1267] | 77 | 93
O=C(NC[C@H](C(=O)O)c1ccccc1)c1ccc2c(c1)NC(=O)c1ccccc1S2 [Compound 1268, (R)-3-(11-oxo-10, 11-dihydrodibenzo [b,f] [1,4]thiazepine-8-carboxamido)-2-phenylpropanoic acid] | 77 | 106
